Laboratory results published in patent publication US20240041773A1, “POWDER MIXING DEVICE, AND USES THEREOF” (University of Connecticut, priority 2022, published 2024).

Key:
[1] = Tribocharging of ibuprofen powder in V blenders, specific charge measured by Faraday cup; type: physicochemical
Description: Ibuprofen was chosen as the model blending powder 140 due to its ability to charge excessively and was evaluated in all the V blenders 110. The V blender materials were procured from McMaster-Carr (https://www.mcmaster.com/) and was fabricated at the University of Connecticut (https://uconn.edu/). Ibuprofen powder 140 was spread into thin layers onto aluminum foil and equilibrated overnight at 16% RH along with the V blender 110 before the blending experiments. Before starting the experiment, initial charge was measured using Faraday cup 200. The blender 110 was charged with the powder 140 and blended in all the blenders for different time intervals. After completion of the tribocharging experiment powder was collected in the Faraday cup 200 connected to a nano-coulombmeter to measure the charge, which was reported as charge to mass ratio, also known as specific charge (nC/g) (FIG. 9). All experiments were done in triplicate at room temperature and at 16% RH. Similar experiments were also performed using ibuprofen—excipient blends to understand equipment capability to mitigate electrostatic charging in other powders. For this study, Ibuprofen—Sugar sphere (500/600 μm) blends were evaluated using stainless steel (SS), stainless steel-PVC (SS-PVC), and PVC blenders. Sugar spheres is widely used excipient for sustained-release pellet formulations used in oral dosage forms therefore, selected for this study.
With reference to FIGS. 10-16, to study triboelectrification, a measured quantity 50 g of ibuprofen was loaded into the V blender 110 which were rotated at 13 rpm for different time intervals. The experiments were performed for different time intervals such as 2, 10, 20, 30, and 40 mins (respectively graphed as bars A-E in FIGS. 10-14) at 13 rpm and 16% relative humidity. […] Final charge with Al-PVC blender 110 of FIG. 6 as shown with the different graphed bars 12A-12E of the bar graph of FIG. 12 was negative in polarity, e.g., due to more interaction of ibuprofen with Aluminum. It can be observed after comparing specific charge from three blenders 110, the Al-PVC blender 110 of FIG. 6 can reduce charge (FIGS. 10-12).
Additionally, the graphs of these FIGS. are showing the charge in nC/g which might appear small but industrial manufacturing involves large scale handling of powders which leads to huge electrostatic charging.

[2] = Powder adhesion to blender wall (initial powder weight minus powder recovered); type: physicochemical
Description: Reference will now be to FIGS. 17A, 17B and 18. To investigate the impact of using the surface of the blender on powder adhesion to the blender material, the total powder adhesion was calculated by subtracting the amount of powder recovered and initial powder weight. […] This may be the result of significant adhesive forces between the blender wall and ibuprofen particles. The blender wall has an opposite charge as compared to ibuprofen particles therefore powder particles becomes attracted to the blender wall and deposit there due to image forces. Additionally, bipolar charging may occur due to this high level of powder adhesion which could further decrease the number of particle-blender wall collisions, further changing the powder charging dynamics.

## CC(C)Cc1ccc(C(C)C(=O)O)cc1 (stereo not shown) [Ibuprofen]
[1]; Al-PVC blender, 13 rpm, 16% RH
  charge accumulated compared with the PVC and Al blenders: significantly less
[1]; Al-PVC blender, 50 g, 13 rpm, 16% RH
  polarity of final charge: negative
[1]; Aluminum blender, 50 g, 13 rpm, 2-40 mins, 16% RH
  polarity of charge acquired: negatively
[1]; PVC blender, 50 g, 13 rpm, 2-40 mins, 16% RH
  polarity of charge acquired: positively
[1]; PVC blender, 50 g, 13 rpm, 2-40 mins, 16% RH, listed as ibuprofen
  polarity of charge acquired: positive charge
[1]; blending at 13 rpm, 16% RH
  time of charge saturation: 30 min
[1]; stainless steel and PVC blender (SS-PVC)
  polarity of charge acquired: negative charge
[1]; stainless steel blender (cGMP material)
  polarity of charge acquired: negative charge
[2]; dual-material blenders (Al-PVC, SS-PVC)
  powder adhesion to the blender walls: decrease in the powder adhesion
[2]; metal or insulator (single-material) blenders
  powder adhesion to the blender walls: significant adhesion
